Experiment: Insulin sensitivity test
Assay type: in vivo, bank voles
Settings: 60 minutes following insulin
Protocol: In the Group A bank voles (n=101), four female animals were found positive for glucosuria and blood glucose values of 215, 302, 313 and 340 mg/dl, respectively, In the remaining bank voles, the mean blood glucose±S.D. was normally distributed at 101±28 mg/dl. The body weight of the trapped voles from group A ranged from 8.5-28.4 g, the mean value±S.D. was 19±5 g. Occasional hyperglycemic and glucosuric bank voles may therefore be trapped in the wild. Whether these four animals had stress-induced hyperglycemia or overt diabetes remains to be established. […] As many as 18/22 (82%) had ketones and were polydipsic. […] We therefore next examined the pancreas histology in non-diabetic and diabetic bank voles to test if the classification of type 1 diabetes was supported by a loss of beta cells.

Actrapid: insulin (Actrapid, Novo Nordisk, Copenhagen, Denmark) used in the insulin sensitivity test
decrease in blood glucose (eight animals with blood glucose <120 mg/dl): 40% | decrease in blood glucose (four animals with blood glucose at 120-200 mg/dl): 60% | decrease in blood glucose (four animals with blood glucose levels above 200 mg/dl): 30%

— patent US7560609B2, “Diabetic model” (priority 2001, dated 2009)
